Measurements as given in patent publication US4277465A, “Adjuvant for promoting absorption of therapeutically active substances through the digestive tract” (Kyoto Yakuhin Kogyo Kabushiki Kaisha, priority 1978, dated 1981).
Values joined by “and” are separate entries in the source; they are usually repeats but may differ in a detail not shown here. Identical values can stand only once.

What was measured:
[1] = Oral capsule of AB-PC sodium with adjuvant, blood concentration of AB-PC; type: in vivo; details: AB-PC sodium 15 mg/kg + Compound 3 10 mg/kg, one value per rabbit, sodium salt
Procedure: Ampicillin (briefly, AB-PC) sodium
Capsules each containing the above indicated amounts of components were prepared by the conventional procedure and administrered to 3 rabbits. Immediately thereafter, each animal was given 20 ml of water and the concentration of AB-PC in the blood was measured by the biological assay method. In the figure, white circles represent AB-PC alone and black circles represent the capsule according to this invention.
The blood concentrations were measured in conformity with the Antibiotic Standard of Japan. The cup method was employed with Sarcina lutea.

[2] = Rectal ointment of AB-PC.Na with enamine derivative, blood concentration; type: in vivo, rabbit; details: rectal ointment AB-PC.Na 10%, enamine derivative 10%, dose 15 mg AB-PC.Na/kg
Procedure: AB-PC and cephalexin (briefly, CEX), both of which are sparingly absorbed from the rectum, are also tested. Thus, enamine derivatives (I) and these antibiotics were used to prepare rectal ointments in accordance with established practice. The ointments were administered to rabbits to investigate the peak blood concentrations (μg/ml) and AUC (μg.min./ml).
Dose: 15mg AB-PC . Na/kg
Compounds 3, 5, 13 and 14 were used as said enamine derivatives (I) in Recipes 4, 5, 6 and 7, respectively.

[3] = Rectal insulin suppository with Compound 3, blood glucose concentration (glucoseoxidase method); type: in vivo, rabbit; details: 3 I.U. insulin per animal + Compound 3 0.05 g in Witepsol H-15
Procedure: The test was conducted by the glucoseoxidase method. […] The largest depression of blood glucose from the pre-medication level was expressed in % response.

[4] = Rectal inulin dosage form with adjuvant, urinary recovery of inulin; type: in vivo, dog; details: in Witepsol H-15, level of addition of enamine derivative 5%, Lunt method
Procedure: (§1) The following dosage forms (dispersed in Witepsol H-15®) were rectally administered to dogs and humans to measure the urinary recovery rates of inulin. […] The test was carried out by the Lunt method.

[5] = as above; type: in vivo, human; details: in Witepsol H-15, level of addition of enamine derivative 1%, Lunt method
Procedure: as §1

[6] = Rectal ointment of CET-Na with enamine derivative, blood concentration; type: in vivo, rabbit
Procedure: Cephalothin sodium (briefly CET-Na), a drug which is sparingly absorbed from the rectum, was selected for a test. Thus, CET-Na was dispersed in liquid paraffin-white vaseline base to prepare rectal ointment. The ointment was administered to rabbits by the rectal route. […] The blood concentration was measured in conformity with the biological assay method in the Antibiotic Standard of Japan. […]

[7] = Rectal inulin suppository with adjuvant, urinary recovery of inulin; type: in vivo, rabbit
Procedure: The above components were used to prepare a suppository in accordance with established pharmaceutical practice. The suppository was rectally administered to rabbits (body weights 2.0-2.5 kg) and the blood concentrations were determined.
The results, shown in FIG. 7, indicates the versatility of enamine derivative (I). The amount of inulin excreted in the urine was 18% of the dose administered.
as §1

[8] = Stability in aqueous solution (half-life of enamine derivatives); type: physicochemical; details: pH 7.4 phosphate buffer, μ 0.15, 25° C., UV absorption spectrometry; "stable" = enamine structure retained even after 6 hours
Procedure: To examine the stability in water of the enamine derivatives (I) obtained above, some representative compounds were selected and their half-lives [t 0.5 (min.)] in pH 7.4 phosphate buffer (μ: 0.15, temp.: 25° C.) were determined by ultraviolet absorption spectrometry. In the Table, "stable" means that the enamine structure was retained even after 6 hours.

[9] = CET, rectal ointment CET.Na 20%, enamine derivative 10%, dose 50 mg CET.Na/kg

area under the blood-concentration curve (AUC) of AB-PC relative to AB-PC alone [1]: 1.52 times and 1.99 times and 1.73 times | AUC [2]: 270 µg·min/mL | Peak blood concentration [2]: 4.8 µg/mL | % Urinary recovery [4]: 20% | % Urinary recovery [5]: 11% | AUC [6, 9]: 445 µg·min/mL | Peak blood concentration [6, 9]: 14.4 µg/mL | % Urinary recovery ([7]; inulin, rectal, in Witepsol H-15, level of addition of enamine derivative 10%, Lunt method): 8% | amount of inulin excreted in the urine ([7]; rectal suppository, inulin 0.25 g + Compound 3 0.05 g in Witepsol H-15): 18 % of the dose administered | half-life t 0.5 [8]: 26.1 min
Compound: CCOC(=O)C=C(C)N[C@@H](C(=O)[O-])c1ccccc1.[Na+] [Compound 3, N-(1-Methyl-2-ethoxycarbonylvinyl)-D-phenylglycine sodium salt]
reduction of blood glucose concentration from the pre-medication level [3]: about 50% | change in blood concentration of CET (in words) ([6]; rectal ointment CET-Na 20%, Compound 3 10%, dose 50 mg CET-Na/kg, FIG. 3): high CET level in the blood could by very quickly achieved
